Laboratory results from ChEMBL document CHEMBL1201862, “PubChem BioAssay data set” (2004).
Active and inactive are the calls of the source.

Assays:
[1] = molecular target: T1, Sentrin-specific protease 7 (Homo sapiens, UniProt Q9BQF6); format: functional;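 further: Luminescence-based dose-response confirmation of ultra-high-throughput screening hits, measuring inhibition of SENP7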
T1 sequence (Q9BQF6 whole entry): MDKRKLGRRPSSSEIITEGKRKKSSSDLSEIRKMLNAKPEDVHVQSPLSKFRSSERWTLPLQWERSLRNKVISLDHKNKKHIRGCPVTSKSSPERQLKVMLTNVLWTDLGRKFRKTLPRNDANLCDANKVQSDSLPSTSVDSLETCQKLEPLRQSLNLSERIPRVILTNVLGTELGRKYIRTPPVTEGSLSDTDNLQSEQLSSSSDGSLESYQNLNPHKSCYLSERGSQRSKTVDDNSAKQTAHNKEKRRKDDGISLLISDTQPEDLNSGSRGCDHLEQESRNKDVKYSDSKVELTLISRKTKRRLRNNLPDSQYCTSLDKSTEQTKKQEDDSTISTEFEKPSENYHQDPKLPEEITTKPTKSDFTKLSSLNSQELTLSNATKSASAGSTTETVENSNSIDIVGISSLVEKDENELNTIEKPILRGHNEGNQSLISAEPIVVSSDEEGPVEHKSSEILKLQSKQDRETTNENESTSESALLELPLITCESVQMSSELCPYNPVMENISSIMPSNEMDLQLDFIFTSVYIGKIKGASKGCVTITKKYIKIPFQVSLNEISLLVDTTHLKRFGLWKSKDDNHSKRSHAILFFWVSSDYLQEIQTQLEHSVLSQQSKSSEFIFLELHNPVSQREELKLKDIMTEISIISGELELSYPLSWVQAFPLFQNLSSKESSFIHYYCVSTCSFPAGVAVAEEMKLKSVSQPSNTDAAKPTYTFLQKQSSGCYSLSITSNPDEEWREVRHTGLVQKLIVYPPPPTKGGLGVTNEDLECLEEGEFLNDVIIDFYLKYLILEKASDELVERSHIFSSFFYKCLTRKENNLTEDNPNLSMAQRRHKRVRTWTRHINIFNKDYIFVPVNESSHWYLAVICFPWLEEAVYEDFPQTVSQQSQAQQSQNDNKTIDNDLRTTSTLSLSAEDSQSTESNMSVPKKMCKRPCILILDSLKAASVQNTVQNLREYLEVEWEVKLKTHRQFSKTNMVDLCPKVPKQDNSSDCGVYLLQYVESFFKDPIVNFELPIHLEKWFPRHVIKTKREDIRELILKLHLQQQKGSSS

[2] = Luminescence Cell-Based Dose Response HTS to Identify Activators of Luciferase Translation or Activity in H4 […] Cells. [Related pubchem assays: 1829 (Project Summary), 1814 (Primary HTS)]; format: functional
H4 = assay: Luminescence Cell-Based Dose Response HTS to Identify Activators of 5'UTR Stem-Loop Driven Prion Protein mRNA Translation in H4 Neuroglioblastoma Cells. [Related pubchem assays: 1829 (Project Summary), 1814 (Primary HTS)]; format: functional; conditions: Homo sapiens
Caspase-3 = molecular target: T2, Caspase-3 (Homo sapiens, UniProt P42574); format: functional;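 further: Dose-response selectivity test against caspase-3 for candidate inhibitors of sentrin-specific proteases (SENPs)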
T2 sequence (P42574 whole entry): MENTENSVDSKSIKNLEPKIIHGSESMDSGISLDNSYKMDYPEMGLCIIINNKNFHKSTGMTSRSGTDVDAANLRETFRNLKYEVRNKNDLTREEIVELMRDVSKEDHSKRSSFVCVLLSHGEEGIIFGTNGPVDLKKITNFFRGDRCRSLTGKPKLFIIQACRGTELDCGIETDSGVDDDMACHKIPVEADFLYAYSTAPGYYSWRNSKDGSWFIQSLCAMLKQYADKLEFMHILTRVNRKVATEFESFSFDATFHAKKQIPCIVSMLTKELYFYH

[3] = molecular target: T3, Sentrin-specific protease 6 (Homo sapiens, UniProt Q9GZR1); format: functional;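 further: Luminescence-based dose-response confirmatory assay of SENP6 inhibition, following up an ultra-high-throughput screen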
T3 sequence (Q9GZR1 whole entry): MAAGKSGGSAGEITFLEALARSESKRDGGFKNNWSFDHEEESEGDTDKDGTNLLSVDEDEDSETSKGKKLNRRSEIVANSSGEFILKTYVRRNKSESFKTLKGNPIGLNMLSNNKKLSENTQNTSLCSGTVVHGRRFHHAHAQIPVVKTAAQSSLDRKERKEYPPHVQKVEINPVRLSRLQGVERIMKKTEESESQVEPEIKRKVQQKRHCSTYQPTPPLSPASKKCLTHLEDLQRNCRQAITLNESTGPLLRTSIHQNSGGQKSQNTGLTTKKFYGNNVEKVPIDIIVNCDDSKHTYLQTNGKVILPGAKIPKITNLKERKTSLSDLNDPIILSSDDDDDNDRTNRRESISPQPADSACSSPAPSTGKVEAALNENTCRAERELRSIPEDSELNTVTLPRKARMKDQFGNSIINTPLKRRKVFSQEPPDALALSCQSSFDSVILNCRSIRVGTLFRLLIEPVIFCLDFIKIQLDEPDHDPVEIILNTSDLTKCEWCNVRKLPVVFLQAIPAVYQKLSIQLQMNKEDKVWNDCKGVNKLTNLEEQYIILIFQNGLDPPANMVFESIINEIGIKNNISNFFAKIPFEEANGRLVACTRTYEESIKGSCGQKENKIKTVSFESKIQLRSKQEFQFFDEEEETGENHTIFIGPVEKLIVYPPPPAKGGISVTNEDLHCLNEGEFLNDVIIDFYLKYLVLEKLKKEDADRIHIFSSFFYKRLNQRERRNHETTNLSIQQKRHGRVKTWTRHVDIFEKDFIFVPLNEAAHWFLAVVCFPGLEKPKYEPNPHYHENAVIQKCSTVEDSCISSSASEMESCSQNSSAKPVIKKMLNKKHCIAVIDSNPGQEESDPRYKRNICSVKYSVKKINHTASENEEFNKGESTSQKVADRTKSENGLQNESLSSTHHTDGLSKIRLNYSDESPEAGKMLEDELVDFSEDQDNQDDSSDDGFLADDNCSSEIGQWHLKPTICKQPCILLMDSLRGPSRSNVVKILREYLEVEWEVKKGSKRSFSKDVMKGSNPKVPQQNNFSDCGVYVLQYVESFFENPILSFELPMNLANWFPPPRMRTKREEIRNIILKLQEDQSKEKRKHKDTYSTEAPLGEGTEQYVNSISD

[4] = molecular target: T4, Sentrin-specific protease 8 (Homo sapiens, UniProt Q96LD8); format: functional;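 further: luminescence read-out of SENP8 inhibition, dose-response confirmation following an ultra-high-throughput screen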
T4 sequence (Q96LD8 whole entry): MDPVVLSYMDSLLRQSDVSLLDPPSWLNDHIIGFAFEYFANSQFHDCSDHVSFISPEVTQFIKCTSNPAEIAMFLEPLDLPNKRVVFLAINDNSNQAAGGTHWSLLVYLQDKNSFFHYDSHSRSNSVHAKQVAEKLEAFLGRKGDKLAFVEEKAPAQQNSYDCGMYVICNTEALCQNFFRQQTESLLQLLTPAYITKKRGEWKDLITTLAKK

[5] = Luminescence Cell-Based Dose Response to Identify Activators of Luciferase Translation or Activity in H4-C Neuroglioblastoma Cells. [Related pubchem assays: 1829 (Project Summary), 1814 (Primary HTS)]; format: functional
[6] = Luminescence Cell-Based Dose Confirmation to Identify Activators of 5'UTR Stem-Loop Driven Alpha-Synuclein mRNA Translation in H4 Neuroglioblastoma Cells. [Related pubchem assays: 1829 (Project Summary), 1814 (Primary HTS)]; format: functional
[7] = Luminescence Cell-Based Dose Response to Identify Activators of 5'UTR Stem-Loop Driven Prion Protein mRNA Translation in H4-C Neuroglioblastoma Cells. [Related pubchem assays: 1829 (Project Summary), 1814 (Primary HTS)]; format: functional
[8] = molecular target: Epstein-Barr nuclear antigen 1 (Epstein-Barr virus (strain B95-8) (HHV-4) (Human herpesvirus 4), UniProt P03211); assay: inhibition of EBV nuclear antigen 1 DNA binding – biochemical, fluorescence polarization, 1536-well, dose response (AID 2381); parameters: species or system human gammaherpesvirus 4;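 further: fluorescence polarization of a Cy5 DNA probe bound by EBNA-1 protein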
[9] = molecular target: Lytic switch protein BZLF1 (Epstein-Barr virus (strain B95-8) (HHV-4) (Human herpesvirus 4), UniProt P03206); assay: inhibition of BZLF1 ZTA DNA binding – biochemical, fluorescence polarization, Epstein-Barr virus, 1536-well, counter-screen for EBNA-1 inhibitor project, dose response (AID 2377); parameters: species or system human gammaherpesvirus 4;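 further: fluorescence polarization of Cy5-labelled ZRE DNA probe bound by purified Zta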
Sequence of Lytic switch protein BZLF1 (P03206 whole entry): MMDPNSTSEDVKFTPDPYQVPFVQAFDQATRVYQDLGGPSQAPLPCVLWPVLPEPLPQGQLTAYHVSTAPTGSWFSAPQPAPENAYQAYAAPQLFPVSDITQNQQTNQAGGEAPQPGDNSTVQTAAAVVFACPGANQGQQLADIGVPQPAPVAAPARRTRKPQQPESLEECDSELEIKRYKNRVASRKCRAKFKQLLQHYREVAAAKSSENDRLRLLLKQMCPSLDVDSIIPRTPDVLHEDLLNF

[10] = molecular target: T5, Luciferin 4-monooxygenase (Photinus pyralis, UniProt P08659); assay: Counter Screen for Luciferase-based Assay Positives. [Related pubchem assays: 620, 618, 411 ]
T5 sequence (P08659 whole entry): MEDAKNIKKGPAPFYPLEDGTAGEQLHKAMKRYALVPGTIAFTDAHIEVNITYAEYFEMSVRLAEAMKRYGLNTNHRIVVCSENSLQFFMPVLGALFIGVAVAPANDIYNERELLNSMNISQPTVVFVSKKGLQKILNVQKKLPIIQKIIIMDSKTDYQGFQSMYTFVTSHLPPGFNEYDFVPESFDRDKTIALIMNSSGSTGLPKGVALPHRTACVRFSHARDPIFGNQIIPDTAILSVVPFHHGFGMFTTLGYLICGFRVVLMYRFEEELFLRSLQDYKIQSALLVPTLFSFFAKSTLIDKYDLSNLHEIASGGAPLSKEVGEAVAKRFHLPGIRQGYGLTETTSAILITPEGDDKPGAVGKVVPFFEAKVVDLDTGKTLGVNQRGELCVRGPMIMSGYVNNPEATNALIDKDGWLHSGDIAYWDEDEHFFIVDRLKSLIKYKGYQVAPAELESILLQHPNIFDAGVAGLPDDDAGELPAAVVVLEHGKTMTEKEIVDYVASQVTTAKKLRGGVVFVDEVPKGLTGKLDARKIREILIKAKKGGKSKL

HT-1080 = assay: HT1080 cell viability loss – fluorescence readout (AID 620); format: functional, cell-based; conditions: Homo sapiens
Cytochrome P450 2C19 = Cytochrome P450 2C19 (Homo sapiens, UniProt P33261); assay: Cytochrome panel assay with activity outcomes. Panel member name: p450-cyp2c19 Compounds with AC50 equal or less than 10 uM are considered active; format: functional; conditions: read-out: AC50
[11] = molecular target: Peroxisome proliferator-activated receptor gamma/Nuclear receptor coactivator 2 (Homo sapiens, UniProt P37231); format: functional;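 further: agonist potency for raising coactivator recruitment to the receptor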
Sequence of Peroxisome proliferator-activated receptor gamma/Nuclear receptor coactivator 2 (P37231 whole entry): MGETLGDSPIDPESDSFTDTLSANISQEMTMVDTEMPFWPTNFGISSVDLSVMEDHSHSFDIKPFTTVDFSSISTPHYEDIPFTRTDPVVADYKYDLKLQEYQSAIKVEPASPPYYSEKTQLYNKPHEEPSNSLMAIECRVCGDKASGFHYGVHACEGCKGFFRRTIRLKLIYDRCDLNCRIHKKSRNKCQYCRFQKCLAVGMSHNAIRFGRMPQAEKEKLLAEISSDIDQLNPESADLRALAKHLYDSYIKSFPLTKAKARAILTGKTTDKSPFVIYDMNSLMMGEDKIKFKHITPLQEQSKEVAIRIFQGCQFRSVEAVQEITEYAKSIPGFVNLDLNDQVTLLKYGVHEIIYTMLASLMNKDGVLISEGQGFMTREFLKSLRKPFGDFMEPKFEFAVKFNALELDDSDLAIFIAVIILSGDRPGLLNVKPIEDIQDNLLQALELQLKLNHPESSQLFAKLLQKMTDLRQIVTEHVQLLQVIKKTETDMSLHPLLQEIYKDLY
Sequence of Peroxisome proliferator-activated receptor gamma/Nuclear receptor coactivator 2 (Q15596 whole entry, further chain): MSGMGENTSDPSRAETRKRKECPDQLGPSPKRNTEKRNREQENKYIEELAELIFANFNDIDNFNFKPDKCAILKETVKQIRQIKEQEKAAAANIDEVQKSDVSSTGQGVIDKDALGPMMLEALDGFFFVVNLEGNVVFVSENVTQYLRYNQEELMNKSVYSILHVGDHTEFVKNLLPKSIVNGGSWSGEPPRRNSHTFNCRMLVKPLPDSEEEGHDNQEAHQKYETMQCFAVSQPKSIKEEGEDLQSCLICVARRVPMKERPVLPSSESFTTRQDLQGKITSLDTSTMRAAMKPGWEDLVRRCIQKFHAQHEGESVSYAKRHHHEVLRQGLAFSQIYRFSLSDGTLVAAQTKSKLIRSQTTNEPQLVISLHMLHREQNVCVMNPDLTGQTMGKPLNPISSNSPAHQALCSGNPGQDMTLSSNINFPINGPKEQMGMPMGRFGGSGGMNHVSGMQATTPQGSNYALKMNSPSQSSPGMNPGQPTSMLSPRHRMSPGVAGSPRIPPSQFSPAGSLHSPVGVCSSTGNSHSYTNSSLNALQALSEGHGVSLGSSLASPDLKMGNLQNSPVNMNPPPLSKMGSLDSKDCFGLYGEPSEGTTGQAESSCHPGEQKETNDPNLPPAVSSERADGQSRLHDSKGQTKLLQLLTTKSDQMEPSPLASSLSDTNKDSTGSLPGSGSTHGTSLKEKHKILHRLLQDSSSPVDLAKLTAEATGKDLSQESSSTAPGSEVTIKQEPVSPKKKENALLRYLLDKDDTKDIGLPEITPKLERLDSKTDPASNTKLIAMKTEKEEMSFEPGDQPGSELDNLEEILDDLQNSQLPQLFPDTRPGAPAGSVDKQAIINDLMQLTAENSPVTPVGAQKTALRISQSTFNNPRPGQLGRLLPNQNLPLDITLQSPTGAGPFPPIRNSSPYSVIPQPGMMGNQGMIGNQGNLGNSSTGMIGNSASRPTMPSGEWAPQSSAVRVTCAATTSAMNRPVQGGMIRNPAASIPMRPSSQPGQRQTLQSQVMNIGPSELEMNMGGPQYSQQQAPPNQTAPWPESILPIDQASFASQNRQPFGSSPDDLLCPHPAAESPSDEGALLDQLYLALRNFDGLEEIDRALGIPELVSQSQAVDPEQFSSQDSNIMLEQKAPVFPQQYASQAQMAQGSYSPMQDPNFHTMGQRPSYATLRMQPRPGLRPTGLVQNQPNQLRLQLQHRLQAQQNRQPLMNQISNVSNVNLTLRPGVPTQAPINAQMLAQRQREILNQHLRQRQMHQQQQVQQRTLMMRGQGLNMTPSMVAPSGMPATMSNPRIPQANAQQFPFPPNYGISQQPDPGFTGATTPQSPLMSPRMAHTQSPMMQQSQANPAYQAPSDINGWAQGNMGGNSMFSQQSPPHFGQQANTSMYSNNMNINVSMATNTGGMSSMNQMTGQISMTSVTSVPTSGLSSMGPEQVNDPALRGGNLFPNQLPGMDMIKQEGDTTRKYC

[12] = molecular target: Peroxisome proliferator-activated receptor gamma/Nuclear receptor coactivator 3 (Homo sapiens, UniProt P37231); format: functional;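 further: agonist potency for raising coactivator recruitment to the receptor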
[13] = molecular target: Peroxisome proliferator-activated receptor gamma/Nuclear receptor coactivator 1 (Homo sapiens, UniProt P37231); format: functional;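 further: agonist potency as compounds enhance coactivator SRC-1 recruitment to PPARgamma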
Sequence of Peroxisome proliferator-activated receptor gamma/Nuclear receptor coactivator 1 (P37231 whole entry): as the sequence (P37231 whole entry) above
Sequence of Peroxisome proliferator-activated receptor gamma/Nuclear receptor coactivator 1 (Q15788 whole entry, further chain): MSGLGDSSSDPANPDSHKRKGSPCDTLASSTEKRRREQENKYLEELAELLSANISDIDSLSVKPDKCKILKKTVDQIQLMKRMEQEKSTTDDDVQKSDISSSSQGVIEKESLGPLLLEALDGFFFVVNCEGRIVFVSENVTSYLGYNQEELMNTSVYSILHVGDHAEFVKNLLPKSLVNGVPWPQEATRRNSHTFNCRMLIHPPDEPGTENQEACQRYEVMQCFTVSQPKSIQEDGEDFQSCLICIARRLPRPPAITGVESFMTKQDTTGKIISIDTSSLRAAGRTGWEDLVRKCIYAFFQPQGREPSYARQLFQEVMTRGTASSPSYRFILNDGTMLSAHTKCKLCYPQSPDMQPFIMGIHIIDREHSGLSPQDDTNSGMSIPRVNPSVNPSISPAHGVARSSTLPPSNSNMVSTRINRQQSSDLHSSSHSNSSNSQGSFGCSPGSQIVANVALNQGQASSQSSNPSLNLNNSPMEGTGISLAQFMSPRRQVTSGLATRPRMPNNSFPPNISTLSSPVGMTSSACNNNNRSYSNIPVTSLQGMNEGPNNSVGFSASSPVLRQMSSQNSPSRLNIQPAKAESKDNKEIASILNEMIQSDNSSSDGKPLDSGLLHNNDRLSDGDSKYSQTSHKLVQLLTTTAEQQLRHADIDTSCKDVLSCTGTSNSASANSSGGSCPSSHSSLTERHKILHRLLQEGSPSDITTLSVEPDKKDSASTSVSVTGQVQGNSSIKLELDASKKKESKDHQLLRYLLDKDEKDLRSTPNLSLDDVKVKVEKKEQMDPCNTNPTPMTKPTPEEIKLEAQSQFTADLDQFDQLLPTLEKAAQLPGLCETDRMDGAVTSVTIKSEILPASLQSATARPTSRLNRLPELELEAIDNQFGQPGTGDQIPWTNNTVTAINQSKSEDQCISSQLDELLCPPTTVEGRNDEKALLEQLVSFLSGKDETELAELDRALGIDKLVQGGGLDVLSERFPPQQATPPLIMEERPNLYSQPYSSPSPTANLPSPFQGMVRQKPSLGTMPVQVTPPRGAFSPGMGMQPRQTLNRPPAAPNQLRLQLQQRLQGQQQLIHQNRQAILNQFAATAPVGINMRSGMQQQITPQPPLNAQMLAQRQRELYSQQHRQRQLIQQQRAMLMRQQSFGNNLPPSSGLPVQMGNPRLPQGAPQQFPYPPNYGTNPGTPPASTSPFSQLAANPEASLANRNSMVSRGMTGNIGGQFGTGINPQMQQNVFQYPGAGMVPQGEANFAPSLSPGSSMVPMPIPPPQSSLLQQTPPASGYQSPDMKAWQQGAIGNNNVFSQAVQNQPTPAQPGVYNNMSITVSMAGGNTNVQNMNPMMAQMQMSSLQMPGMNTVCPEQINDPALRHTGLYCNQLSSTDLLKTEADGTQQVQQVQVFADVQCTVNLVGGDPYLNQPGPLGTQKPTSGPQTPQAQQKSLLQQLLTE

Protein skinhead-1 = molecular target: T6, Protein skinhead-1 (Caenorhabditis elegans, UniProt P34707); format: functional
T6 sequence (P34707 whole entry): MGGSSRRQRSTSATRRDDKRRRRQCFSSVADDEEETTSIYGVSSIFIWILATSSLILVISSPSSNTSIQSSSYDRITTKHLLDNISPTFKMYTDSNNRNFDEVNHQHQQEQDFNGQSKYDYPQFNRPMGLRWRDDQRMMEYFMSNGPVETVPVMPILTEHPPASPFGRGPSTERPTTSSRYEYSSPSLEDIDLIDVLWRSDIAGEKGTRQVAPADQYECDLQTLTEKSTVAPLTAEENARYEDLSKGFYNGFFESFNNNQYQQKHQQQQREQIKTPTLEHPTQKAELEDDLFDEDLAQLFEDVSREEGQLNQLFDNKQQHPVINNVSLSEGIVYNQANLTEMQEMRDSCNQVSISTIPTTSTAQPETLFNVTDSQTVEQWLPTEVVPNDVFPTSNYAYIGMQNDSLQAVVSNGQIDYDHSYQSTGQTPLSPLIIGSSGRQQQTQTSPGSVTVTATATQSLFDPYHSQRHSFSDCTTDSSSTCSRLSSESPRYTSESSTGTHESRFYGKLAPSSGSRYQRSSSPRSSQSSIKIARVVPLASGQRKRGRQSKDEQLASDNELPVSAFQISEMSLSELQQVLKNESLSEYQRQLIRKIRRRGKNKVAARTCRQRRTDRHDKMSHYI

Cytochrome P450 3A4 = Cytochrome P450 3A4 (Homo sapiens, UniProt P08684);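 further: CYP3A4 tested as one member of a cytochrome P450 panel screen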
[14] = A Cell Based Secondary Assay To Explore Cytotoxicity of Compounds that Sensitize Mycobacterium Tuberculosis to Beta-Lactam Antibiotics.; format: functional
Bcl-2-related protein A1 [15] = molecular target: T7, Bcl-2-related protein A1 (Mus musculus, UniProt Q07440); assay: Bfl-1 binding inhibitors, SAR follow-up, biochemical, fluorescence polarization (AID 1070)
T7 sequence (Q07440 whole entry): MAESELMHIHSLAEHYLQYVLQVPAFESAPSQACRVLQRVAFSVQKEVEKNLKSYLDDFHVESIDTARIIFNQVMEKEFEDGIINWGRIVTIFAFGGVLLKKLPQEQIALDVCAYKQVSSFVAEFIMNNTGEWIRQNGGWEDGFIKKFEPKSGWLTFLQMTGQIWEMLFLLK

[16] = molecular target: Glyceraldehyde-3-phosphate dehydrogenase (Homo sapiens, UniProt P04406)
Sequence of Glyceraldehyde-3-phosphate dehydrogenase (P04406 whole entry): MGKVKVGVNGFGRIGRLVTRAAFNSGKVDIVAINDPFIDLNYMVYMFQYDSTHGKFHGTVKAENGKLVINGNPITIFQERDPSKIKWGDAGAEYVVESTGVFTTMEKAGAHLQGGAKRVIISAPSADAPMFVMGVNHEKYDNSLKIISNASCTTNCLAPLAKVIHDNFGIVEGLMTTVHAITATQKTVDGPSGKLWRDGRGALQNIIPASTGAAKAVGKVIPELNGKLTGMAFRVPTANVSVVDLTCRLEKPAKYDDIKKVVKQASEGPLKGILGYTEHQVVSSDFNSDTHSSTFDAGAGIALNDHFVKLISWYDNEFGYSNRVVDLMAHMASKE

Bcl-2-related protein A1 [17] = molecular target: T7, Bcl-2-related protein A1; assay: small-molecule antagonists of Bfl-1/BH3 interaction – biochemical, TR-FRET, mouse Bfl-1, confirmation (AID 621);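 further: TR-FRET binding of GST-Bfl-1 to FITC-labelled Bid peptide via terbium antibody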
H9c2 = assay: cells; format: functional, cell-based; conditions: Rattus norvegicus, H9c2, Myocardium;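 further: confirmatory concentration-response retest of ultra-high-throughput screening hits for modulation of myocardial damage; cell death induced by hydrogen peroxide oxidative stress; compound pretreatment for 60 min then peroxide exposure for 2 h; potency is for protecting the cells against peroxide damage rather than for killing them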
[18] = molecular target: T5, Luciferin 4-monooxygenase; assay: inhibition of purified Photinus pyralis luciferase – biochemical, luminescence, dose response (AID 1891)
[19] = antiviral protection against BTV-induced cell death – arbovirus, BSR cells, confirmation (AID 1250); format: functional;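 further: protection from viral cytopathic effect measured as cell viability by ATP luminescence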
[20] = Luminescence Cell-Based Dose Confirmation HTS to Identify Inhibitors of Platelet Dense Granule Release. [Related pubchem assays: 1663 (Primary HTS), 1678 (Summary of Project)]; format: functional

Compound: O=C(Nc1cccc(F)c1)Nc1ccc2c(c1)CCC2
- IC50 [1]: 2.85 µM (active)
- EC50 [2]: < 0.1 µM (active)
- EC50 (H4): > 120 µM (not active)
- IC50 (Caspase-3): 57.8 µM (active)
- IC50 [3]: > 100 µM (inactive)
- IC50 [4]: > 100 µM (inactive)
- EC50 [5]: 0.463 µM (active)
- EC50 [6]: 10.7 µM (active)
- EC50 [7]: 0.63 µM (active)

Compound: COc1ccc(N/C=C2/C(=O)N(c3ccc(OC)cc3)C(=O)c3ccccc32)cc1
- IC50 [8]: 8.99 µM (active)
- IC50 [9]: > 111 µM (not active)

Compound: c1ccc(-c2ccc(-c3ccccn3)nn2)nc1
- EC50 [10]: > 100 µM (not active)
- EC50 (HT-1080): > 50 µM (not active)

Compound: O=C(CC1CCCC1)Nc1ccc2c(c1)CCC2
- AC50 (Cytochrome P450 2C19): 7.08 µM (inconclusive)
- EC50 [11]: > 79.4 µM (not active)
- EC50 [12]: > 79.4 µM (not active)
- EC50 [13]: > 79.4 µM (not active)

Compound: COc1cc(OC)c(/C=C2\SC(=O)N(CC(=O)Nc3ccccc3F)C2=O)c(OC)c1
- IC50 [8]: 1.98 µM (active)
- IC50 [9]: > 111 µM (not active)

Compound: Cc1ccc2nc(NC(=O)c3ccco3)sc2c1
- IC50 (Protein skinhead-1): > 100 µM (inactive)
- EC50 [10]: 18.9 µM (active)
- EC50 (HT-1080): > 50 µM (not active)

Compound: Cc1ccccc1OCC(=O)Nc1sc(C(=O)Nc2cccc(C)c2C)c(C)c1C#N
- EC50 [11]: 36.5 µM (not active)
- EC50 [12]: < 79.4 µM (not active)
- EC50 [13]: 52.4 µM (not active)
- AC50 (Cytochrome P450 3A4): inconclusive

Compound: C[C@H](NC(=O)c1[nH]cnc1C(=O)Nc1cccc(Cl)c1)c1ccccc1
- CC50 [14]: 19.3 µM (active)

Compound: CCOc1ccccc1N1CCN(C2=C(Cl)C(=O)N(c3ccc(Cl)c(Cl)c3)C2=O)CC1
- IC50 (Bcl-2-related protein A1 [15]): > 100 µM (not active)
- IC50 [16]: > 100 µM (not active)
- IC50 (Bcl-2-related protein A1 [17]): > 100 µM (not active)

Compound: COc1ccc(-c2nnc(-c3cc(OC)c(OC)c(OC)c3)o2)cc1OC
- IC50 (H9c2): 12.5 µM (active)
- EC50 [18]: > 112 µM (not active)
- IC50 [19]: 27.5 µM (active)
- EC50 [20]: > 112 µM (not active)

Compound: COc1ccc2nc(O)c(-c3nnn(-c4ccc(C)cc4)n3)cc2c1
- IC50 (Bcl-2-related protein A1 [15]): > 100 µM (not active)
- IC50 (Bcl-2-related protein A1 [17]): > 100 µM (not active)
